Laboratory results as given in US11000033B2, “Ketone or oxime compound, and herbicide” (NISSAN CHEMICAL CORPORATION, priority 2014, dated 2021).

Assays:
Assay type in all cases: in vivo
soybean [1] = assay: Test Example 5: effect on crop by foliage application, plastic box (symbol d); details: 320 g/ha, 3 weeks after application
Summary of the method: (§1)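 Sterilized diluvial soil, plastic box (21 × 13 × 7 cm); spot sowing, ~1.5 cm soil cover; greenhouse 25–30° C.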

soybean [2] = assay: Test Example 4: effect on crop by soil treatment (symbol d); details: for d: soybean, effect grade on crop: 320 g/ha; for Effect on crop grade, d: soybean: application herbicide amount 320 g/ha
Summary of the method: (§2)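 Crop seeds, among them rice, wheat, beet and rapeseed, were sown in sterilized diluvial soil and covered with about 1.5 cm of soil. Boxes were kept in a greenhouse at 25° C. to 30° C. for plant growth.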

[3] = tested on: Echinochloa crus-galli var. crus-galli; assay: Test Example 5: herbicidal effect by foliage application, plastic box (symbol H); details: 320 g/ha, 3 weeks after application
Summary of the method: (§3)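 Sowing in sterilized diluvial soil, 14 days' greenhouse growth at 25° C. to 30° C., then uniform small-sprayer foliar application of aqueous emulsion dilution; plants scored three weeks afterwards.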

wheat [4] = assay: Test Example 4: effect on crop by soil treatment (symbol e); details: for e: wheat, effect grade on crop: 320 g/ha; for Effect on crop grade, e: wheat: application herbicide amount 320 g/ha
Summary of the method: as §2

wheat [5] = assay: Test Example 5: effect on crop by foliage application, plastic box (symbol e); details: 320 g/ha, 3 weeks after application
Summary of the method: as §1

Monochoria vaginalis = assay: Test Example 1: herbicidal activity, application before weed generation in submerged conditions (symbol C); details: application herbicide amount 320 g/ha
Summary of the method: (§4)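 Weeds are sown into submerged alluvial soil alongside transplanted 2.5-leaf rice, and the compound, as an emulsion diluted to a set rate, is applied onto the water before emergence. Rating on the 0–5 herbicidal-ratio scale follows 3 weeks of greenhouse growth at 25–30 °C.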

Galium spurium = assay: Test Example 5: herbicidal effect by foliage application, plastic box (symbol Q); details: 320 g/ha, 3 weeks after application
Summary of the method: as §3

[6] = tested on: directly sowed rice plant; assay: Test Example 3: effect on crop by foliage application, Wagner pot (symbol b); details: application herbicide amount 320 g/ha; for b (directly sowed rice plant) effect on crop grade: Table 24
Summary of the method: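 Steps: fill a 1/10000-are Wagner pot with alluvial soil; add water and mix to submerge at 0.1–0.5 cm depth; sow rice plus Echinochloa crus-galli var. crus-galli, Leptochloa chinensis and Cyperus difformis; grow in a 25–30 °C greenhouse.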

rapeseed = assay: Test Example 4: effect on crop by soil treatment (symbol g); details: for g: rapeseed, effect grade on crop: 320 g/ha; for Effect on crop grade, g: rapeseed: application herbicide amount 320 g/ha
Summary of the method: as §2

Lolium multiflorum Lam. = assay: Test Example 5: herbicidal effect by foliage application, plastic box (symbol K); details: 320 g/ha, 3 weeks after application
Summary of the method: as §3

Amaranthus retroflexus = assay: Test Example 5: herbicidal effect by foliage application, plastic box (symbol N); details: 320 g/ha, 3 weeks after application
Summary of the method: as §3

Chenopodium album = assay: Test Example 5: herbicidal effect by foliage application, plastic box (symbol O); details: 320 g/ha, 3 weeks after application
Summary of the method: as §3

[7] = tested on: Echinochloa oryzacola Vasing.; assay: Test Example 1: herbicidal activity, application before weed generation in submerged conditions (symbol A); details: application herbicide amount 320 g/ha
Summary of the method: as §4

Veronica persica = assay: Test Example 5: herbicidal effect by foliage application, plastic box (symbol R); details: 320 g/ha, 3 weeks after application
Summary of the method: as §3

beet = assay: Test Example 5: effect on crop by foliage application, plastic box (symbol f); details: 320 g/ha, 3 weeks after application
Summary of the method: as §1

Digitaria ciliaris = assay: Test Example 4: herbicidal effect by soil treatment (symbol F); details: for F: Digitaria ciliaris, herbicidal effect grade: 320 g/ha; for Herbicidal effect grade, F: Digitaria ciliaris: application herbicide amount 320 g/ha
Summary of the method: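 Seeds were sown in sterilized diluvial soil, covered with about 1.5 cm of soil, and the soil surface was sprayed with a water-diluted emulsion of the compound at a predetermined rate. Plants grew in a greenhouse at 25° C. to 30° C.; effects were scored visually 3 weeks after application.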

CC(CC1CC(O)=C(c2c(C)cc(C)cc2C)C1=O)=NOCc1ccc(C(F)(F)F)cc1 (stereo not drawn) [1-138]
d: soybean, effect on crop (criteria 0-5) (soybean [1]): 0 (Herbicidal ratio of 5% or lower (almost no effect))
d: soybean, effect grade on crop (soybean [2]): 0 (Herbicidal ratio of 5% or lower (almost no effect))
H: Echinochloa crus-galli var. crus-galli, herbicidal effect (criteria 0-5) [3]: 5 (Herbicidal ratio of 90% or more (almost completely withered))
e: wheat, effect grade on crop (wheat [4]): 0 (Herbicidal ratio of 5% or lower (almost no effect))
e: wheat, effect on crop (criteria 0-5) (wheat [5]): 3 (Herbicidal ratio of 40% or higher and lower than 70%)
Herbicidal effect grade, C: Monochoria vaginalis (Monochoria vaginalis): 5 (Herbicidal ratio of 90% or more (almost completely withered))
Q: Galium spurium, herbicidal effect (criteria 0-5) (Galium spurium): 3 (Herbicidal ratio of 40% or higher and lower than 70%)
effect on crop b (directly sowed rice plant), grade 0-5 [6]: 5 (Herbicidal ratio of 90% or more (almost completely withered))
g: rapeseed, effect grade on crop (rapeseed): 0 (Herbicidal ratio of 5% or lower (almost no effect))
K: Lolium multiflorum Lam., herbicidal effect (criteria 0-5) (Lolium multiflorum Lam.): 5 (Herbicidal ratio of 90% or more (almost completely withered))
N: Amaranthus retroflexus, herbicidal effect (criteria 0-5) (Amaranthus retroflexus): 0 (Herbicidal ratio of 5% or lower (almost no effect))
O: Chenopodium album, herbicidal effect (criteria 0-5) (Chenopodium album): 0 (Herbicidal ratio of 5% or lower (almost no effect))
Herbicidal effect grade, A: Echinochloa oryzacola Vasing. [7]: 5 (Herbicidal ratio of 90% or more (almost completely withered))
R: Veronica persica, herbicidal effect (criteria 0-5) (Veronica persica): 3 (Herbicidal ratio of 40% or higher and lower than 70%)
f: beet, effect on crop (criteria 0-5) (beet): 0 (Herbicidal ratio of 5% or lower (almost no effect))

CC(CC1CC(O)=C(c2c(C)cc(C)cc2C)C1=O)=NOCC1CC1(F)F (stereo not drawn) [1-109]
d: soybean, effect on crop (criteria 0-5) (soybean [1]): 0 (Herbicidal ratio of 5% or lower (almost no effect))
d: soybean, effect grade on crop (soybean [2]): 0 (Herbicidal ratio of 5% or lower (almost no effect))
H: Echinochloa crus-galli var. crus-galli, herbicidal effect (criteria 0-5) [3]: 5 (Herbicidal ratio of 90% or more (almost completely withered))
F: Digitaria ciliaris, herbicidal effect grade (Digitaria ciliaris): 5 (Herbicidal ratio of 90% or more (almost completely withered))
e: wheat, effect grade on crop (wheat [4]): 2 (Herbicidal ratio of 20% or higher and lower than 40%)
e: wheat, effect on crop (criteria 0-5) (wheat [5]): 5 (Herbicidal ratio of 90% or more (almost completely withered))
Herbicidal effect grade, C: Monochoria vaginalis (Monochoria vaginalis): 3 (Herbicidal ratio of 40% or higher and lower than 70%)
effect on crop b (directly sowed rice plant), grade 0-5 [6]: 5 (Herbicidal ratio of 90% or more (almost completely withered))
g: rapeseed, effect grade on crop (rapeseed): 4 (Herbicidal ratio of 70% or higher and lower than 90%)
K: Lolium multiflorum Lam., herbicidal effect (criteria 0-5) (Lolium multiflorum Lam.): 5 (Herbicidal ratio of 90% or more (almost completely withered))
N: Amaranthus retroflexus, herbicidal effect (criteria 0-5) (Amaranthus retroflexus): 0 (Herbicidal ratio of 5% or lower (almost no effect))
O: Chenopodium album, herbicidal effect (criteria 0-5) (Chenopodium album): 3 (Herbicidal ratio of 40% or higher and lower than 70%)
Herbicidal effect grade, A: Echinochloa oryzacola Vasing. [7]: 5 (Herbicidal ratio of 90% or more (almost completely withered))
R: Veronica persica, herbicidal effect (criteria 0-5) (Veronica persica): 3 (Herbicidal ratio of 40% or higher and lower than 70%)
f: beet, effect on crop (criteria 0-5) (beet): 0 (Herbicidal ratio of 5% or lower (almost no effect))

CON=C(C)CC1CC(OC(=O)N2CCOCC2)=C(c2c(C)cc(C)cc2C)C1=O (stereo not drawn) [1-104]
d: soybean, effect on crop (criteria 0-5) (soybean [1]): 1 (Herbicidal ratio of 5% or higher and lower than 20%)
d: soybean, effect grade on crop (soybean [2]): 0 (Herbicidal ratio of 5% or lower (almost no effect))
H: Echinochloa crus-galli var. crus-galli, herbicidal effect (criteria 0-5) [3]: 5 (Herbicidal ratio of 90% or more (almost completely withered))
F: Digitaria ciliaris, herbicidal effect grade (Digitaria ciliaris): 5 (Herbicidal ratio of 90% or more (almost completely withered))
e: wheat, effect grade on crop (wheat [4]): 1 (Herbicidal ratio of 5% or higher and lower than 20%)
e: wheat, effect on crop (criteria 0-5) (wheat [5]): 0 (Herbicidal ratio of 5% or lower (almost no effect))
Herbicidal effect grade, C: Monochoria vaginalis (Monochoria vaginalis): 1 (Herbicidal ratio of 5% or higher and lower than 20%)
effect on crop b (directly sowed rice plant), grade 0-5 [6]: 5 (Herbicidal ratio of 90% or more (almost completely withered))
g: rapeseed, effect grade on crop (rapeseed): 2 (Herbicidal ratio of 20% or higher and lower than 40%)
K: Lolium multiflorum Lam., herbicidal effect (criteria 0-5) (Lolium multiflorum Lam.): 5 (Herbicidal ratio of 90% or more (almost completely withered))
N: Amaranthus retroflexus, herbicidal effect (criteria 0-5) (Amaranthus retroflexus): 0 (Herbicidal ratio of 5% or lower (almost no effect))
O: Chenopodium album, herbicidal effect (criteria 0-5) (Chenopodium album): 2 (Herbicidal ratio of 20% or higher and lower than 40%)
Herbicidal effect grade, A: Echinochloa oryzacola Vasing. [7]: 5 (Herbicidal ratio of 90% or more (almost completely withered))
R: Veronica persica, herbicidal effect (criteria 0-5) (Veronica persica): 1 (Herbicidal ratio of 5% or higher and lower than 20%)
f: beet, effect on crop (criteria 0-5) (beet): 0 (Herbicidal ratio of 5% or lower (almost no effect))

COC(=O)C(C(=O)C1CC1)C1CC(O)=C(c2c(C)cc(Br)cc2C)C1=O (mixture of isomers) [10-002]
d: soybean, effect on crop grade (soybean [1]): 0 (Herbicidal ratio of 5% or lower (almost no effect))
Effect on crop grade, d: soybean (soybean [2]): 0 (Herbicidal ratio of 5% or lower (almost no effect))
H: Echinochloa crus-galli var. crus-galli, herbicidal effect grade [3]: 5 (Herbicidal ratio of 90% or more (almost completely withered))
Herbicidal effect grade, F: Digitaria ciliaris (Digitaria ciliaris): 4 (Herbicidal ratio of 70% or higher and lower than 90%)
Effect on crop grade, e: wheat (wheat [4]): 0 (Herbicidal ratio of 5% or lower (almost no effect))
e: wheat, effect on crop grade (wheat [5]): 0 (Herbicidal ratio of 5% or lower (almost no effect))
C (Monochoria vaginalis) herbicidal effect grade (Monochoria vaginalis): 0 (Herbicidal ratio of 5% or lower (almost no effect))
b (directly sowed rice plant) effect on crop grade [6]: 5 (Herbicidal ratio of 90% or more (almost completely withered))
Effect on crop grade, g: rapeseed (rapeseed): 0 (Herbicidal ratio of 5% or lower (almost no effect))
K: Lolium multiflorum Lam., herbicidal effect grade (Lolium multiflorum Lam.): 5 (Herbicidal ratio of 90% or more (almost completely withered))
N: Amaranthus retroflexus, herbicidal effect grade (Amaranthus retroflexus): 0 (Herbicidal ratio of 5% or lower (almost no effect))
O: Chenopodium album, herbicidal effect grade (Chenopodium album): 0 (Herbicidal ratio of 5% or lower (almost no effect))
A (Echinochloa oryzacola Vasing.) herbicidal effect grade [7]: 1 (Herbicidal ratio of 5% or higher and lower than 20%)
R: Veronica persica, herbicidal effect grade (Veronica persica): 0 (Herbicidal ratio of 5% or lower (almost no effect))
f: beet, effect on crop grade (beet): 0 (Herbicidal ratio of 5% or lower (almost no effect))

COCCON=C(CC1CC(O)=C(c2c(C)cc(-n3cc(Cl)cn3)cc2C)C1=O)C1CC1 (stereo not drawn) [9-020]
d: soybean, effect on crop grade (soybean [1]): 1 (Herbicidal ratio of 5% or higher and lower than 20%)
Effect on crop grade, d: soybean (soybean [2]): 0 (Herbicidal ratio of 5% or lower (almost no effect))
H: Echinochloa crus-galli var. crus-galli, herbicidal effect grade [3]: 5 (Herbicidal ratio of 90% or more (almost completely withered))
Herbicidal effect grade, F: Digitaria ciliaris (Digitaria ciliaris): 4 (Herbicidal ratio of 70% or higher and lower than 90%)
Effect on crop grade, e: wheat (wheat [4]): 0 (Herbicidal ratio of 5% or lower (almost no effect))
e: wheat, effect on crop grade (wheat [5]): 2 (Herbicidal ratio of 20% or higher and lower than 40%)
C (Monochoria vaginalis) herbicidal effect grade (Monochoria vaginalis): 1 (Herbicidal ratio of 5% or higher and lower than 20%)
b (directly sowed rice plant) effect on crop grade [6]: 5 (Herbicidal ratio of 90% or more (almost completely withered))
Effect on crop grade, g: rapeseed (rapeseed): 0 (Herbicidal ratio of 5% or lower (almost no effect))
K: Lolium multiflorum Lam., herbicidal effect grade (Lolium multiflorum Lam.): 5 (Herbicidal ratio of 90% or more (almost completely withered))
N: Amaranthus retroflexus, herbicidal effect grade (Amaranthus retroflexus): 5 (Herbicidal ratio of 90% or more (almost completely withered))
O: Chenopodium album, herbicidal effect grade (Chenopodium album): 3 (Herbicidal ratio of 40% or higher and lower than 70%)
A (Echinochloa oryzacola Vasing.) herbicidal effect grade [7]: 5 (Herbicidal ratio of 90% or more (almost completely withered))
R: Veronica persica, herbicidal effect grade (Veronica persica): 3 (Herbicidal ratio of 40% or higher and lower than 70%)
f: beet, effect on crop grade (beet): 0 (Herbicidal ratio of 5% or lower (almost no effect))
